Measured values published in patent US10729675B2, “Gossypol isatin schiff base compounds with antitumor activities and a method of preparing the same” (SHAANXI UNIVERSITY OF SCIENCE AND TECHNOLOGY, priority 2018, dated 2020).

Tests used:
[1] = system: human lung cancer cells (A-549); assay: tumor cell proliferation inhibition test, MTT method, A-549; assay type: cell-based; conditions: A549 cells, 48 hours treatment, read-out: Half Inhibitory Concentration IC50 A549
Description: (§1) The compounds of the present invention were subjected to tumor cell proliferation inhibition test, and conventional MTT method was used.
(§2) Cell lines: human hepatoma cells (HepG2), human lung cancer cells (A-549), human gastric cancer cells (SGC-7901). The culture medium was DMEM+15% NBS+double antibody.
(§3) Sample solution preparation: after dissolving with DMSO (Merck), PBS (−) was added to obtain 100 μmol/L solution or homogeneous suspension. The solution was diluted with PBS (−) in DMSO to a final concentration of 0.1, 1, 10, 20, 40, 60, 80, 100 μmol/L.
(§4) Gossypol was used as control solution, prepared under the same condition.
(§5) Cell culture: adherent growth Tumor cells were cultured in 1640 medium containing 10% inactivated neonatal bovine serum and penicillin, streptomycin (1 million U/L), placed in carbon dioxide incubator at 37° C., 5% CO2, and saturated humidity. Cells were treated serially passaged 2-3 times. The first culture was washed with PBS 2 times, and digested with trypsin. Fresh culture medium was added evenly, cells were adjusted to a appropriate concentration and transferred into a new culture flask. Cell in an exponential phase were chosen for the tests.
(§6) Experimental Principle: Living cells mitochondria in the dehydrogenase can reduce yellow MTT to water-insoluble blue-violet product MT (MTT formazan), deposited in the cells. The amount of production is proportional to the number of living cells. […] DMSO can dissolve blue violet crystals, and the color depth is proportional to the amount contained, so the absorbance measured by the microplate reader can reflect the cell viability.
(§7) Methods: The exponential phase cells were digested and counted and seeded in 96-well plates at a density of 2×10^4/mL at 100 μl per well. After 24 hours of incubation, the cells to be tested were treated with 0.1, 1, 10, 20, 40, 60, 80, 100 μmol/L of the compounds. Each experimental group had 5 wells in each concentration, and the culture medium containing 0.4% DMSO was used as control. After 48 hours, the supernatant was discarded, and 100 μl of MTT ((2-(4,5-dimethyl-2-thiazolyl)-3,5-diphenyl-2H-tetrazole hydrobromide) (1 mg/mL) was added to each well. After another 4 hours, the supernatant was discarded, and 100 μl of DMSO was added to each well. After mixing, the absorbance was measured at 570 nm using a microplate reader. An IC50 calculation software was used to determine the half inhibitory concentration (IC50).

[2] = system: human gastric cancer cells (SGC-7901); assay: tumor cell proliferation inhibition test, MTT method, SGC-7901; assay type: cell-based; conditions: SGC-7901 cells, 48 hours treatment, read-out: Half Inhibitory Concentration IC50 SGC-7901
Description: as §1, §2, §3, §4, §5, §6, §7

[3] = system: human hepatoma cells (HepG2); assay: tumor cell proliferation inhibition test, MTT method, HepG2; assay type: cell-based; conditions: 48 hours treatment, read-out: Half Inhibitory Concentration IC50 HepG2
Description: as §1, §2, §3, §4, §5, §6, §7

[4] = system: HepG2, A-549, SGC-7901 tumor cells; assay: anti-tumor activity test, MTT method, summary over the three cell lines tested; assay type: cell-based, human
Description: as §1, §2, §3, §4
as §5, with “Cell in an exponential phase were chosen for the tests.” left out
as §6, with “the” for “the cells. The amount of production is proportional to the number of living”
as §7, with “After 24 hours of incubation, the cells to be tested were treated with 0.1, 1, 10, 20, 40, 60, 80, 100 μmol/L of the compounds. Each experimental group had 5 wells in each concentration, and the culture medium containing 0.4% DMSO was used as control.” left out

| SMILES | IC50 [1] | IC50 [2] | melting point | IC50 [3] | antitumor activities (in words) [4] |
| --- | --- | --- | --- | --- | --- |
| Cc1ccc2c(c1)/C(=N/N=C/c1c(O)c(O)c(C(C)C)c3cc(C)c(-c4c(C)cc5c(C(C)C)c(O)c(O)c(/C=N/N=C6/C(=O)Nc7ccc(C)cc76)c5c4O)c(O)c13)C(=O)N2 [Compound 1, (3Z,3′E)-3,3′-(((1E,1′E)-(1,1′,6,6′,7,7′-hexahydroxy-5,5′-diisopropyl-3,3′-dimethyl-[2,2′-binaphthalene]-8,8′-diyl)bis(methanylylidene))bis(hydrazine-2,1-diylidene))bis(5-methylindolin-2-one)] | > 100 µM | > 100 µM | 187.5 °C | > 100 µM |  |
| Cc1cc2c(C(C)C)c(O)c(O)c(/C=N/N=C3\C(=O)Nc4ccc(Cl)cc43)c2c(O)c1-c1c(C)cc2c(C(C)C)c(O)c(O)c(/C=N/N=C3/C(=O)Nc4ccc(Cl)cc43)c2c1O [Compound 2, (3Z,3′E)-3,3′-(((1E,1′E)-(1,1′,6,6′,7,7′-hexahydroxy-5,5′-diisopropyl-3,3′-dimethyl-[2,2′-binaphthalene]-8,8′-diyl)bis(methanylylidene))bis(hydrazine-2,1-diylidene))bis(5-chloroindolin-2-one)] | 68.3 ± 2.15 µM | > 100 µM | 190.7 °C | 29.4 ± 2.1 µM |  |
| Cc1cc2c(C(C)C)c(O)c(O)c(/C=N/N=C3\C(=O)N(C)c4ccccc43)c2c(O)c1-c1c(C)cc2c(C(C)C)c(O)c(O)c(/C=N/N=C3/C(=O)N(C)c4ccccc43)c2c1O [Compound 3, (3Z,3′E)-3,3′-(((1E, 1′E)-(1,1′,6,6′,7,7′-hexahydroxy-5,5′-diisopropyl-3,3′-dimethyl-[2,2′-binaphthalene]-8,8′-diyl)bis(methanylylidene))bis(hydrazine-2,1-diylidene))bis(1-methylindolin-2-one)] | 7.87 ± 0.91 µM | 16.6 ± 1.46 µM |  | 8.67 ± 0.74 µM | excellent antitumor activities |
| Cc1cc2c(C(C)C)c(O)c(O)c(/C=N/N=C3\C(=O)N(Cc4ccccc4)c4ccc(Cl)cc43)c2c(O)c1-c1c(C)cc2c(C(C)C)c(O)c(O)c(/C=N/N=C3/C(=O)N(Cc4ccccc4)c4ccc(Cl)cc43)c2c1O [Compound 7, (3Z,3′E)-3,3′-(((1E, 1′E)-(1,1′,6,6′,7,7′-hexahydroxy-5,5′-diisopropyl-3,3′-dimethyl-[2,2′-binaphthalene]-8,8′-diyl)bis(methanylylidene))bis(hydrazine-2,1-diylidene))bis(1-benzyl-5-chloroindolin-2-one)] | 16.3 ± 1.21 µM | 12.5 ± 1.93 µM |  | 14.7 ± 1.12 µM | good activities |
| Cc1cc2c(C(C)C)c(O)c(O)c(/C=N/N=C3\C(=O)N(Cc4ccccc4)c4ccccc43)c2c(O)c1-c1c(C)cc2c(C(C)C)c(O)c(O)c(/C=N/N=C3/C(=O)N(Cc4ccccc4)c4ccccc43)c2c1O [Compound 8, (3Z,3′E)-3,3′-(((1E, 1′E)-(1,1′,6,6′,7,7′-hexahydroxy-5,5′-diisopropyl-3,3′-dimethyl-[2,2′-binaphthalene]-8,8′-diyl)bis(methanylylidene))bis(hydrazine-2,1-diylidene))bis(1-benzylindolin-2-one)] | > 100 µM | 88.8 ± 3.02 µM | 219.9 °C | > 100 µM |  |

The next lines start with results.

| IC50 [1] | IC50 [2] | melting point | IC50 [3] | SMILES | antitumor activities (in words) [4] |
| --- | --- | --- | --- | --- | --- |
| > 100 µM | > 100 µM | 204.3 °C | > 100 µM | Cc1cc2c(C(C)C)c(O)c(O)c(/C=N/N=C3\C(=O)N(C)c4ccc(Cl)cc43)c2c(O)c1-c1c(C)cc2c(C(C)C)c(O)c(O)c(/C=N/N=C3/C(=O)N(C)c4ccc(Cl)cc43)c2c1O [Compound 4, (3Z,3′E)-3,3′-(((1E, 1′E)-(1,1′,6,6′,7,7′-hexahydroxy-5,5′-diisopropyl-3,3′-dimethyl-[2,2′-binaphthalene]-8,8′-diyl)bis(methanylylidene))bis(hydrazine-2,1-diylidene))bis(5-chloro-1-methylindolin-2-one)] |  |
| 19.3 ± 1.62 µM | 13.7 ± 1.11 µM |  | 8.92 ± 0.59 µM | CCN1C(=O)/C(=N\N=C\c2c(O)c(O)c(C(C)C)c3cc(C)c(-c4c(C)cc5c(C(C)C)c(O)c(O)c(/C=N/N=C6/C(=O)N(CC)c7ccc(Cl)cc76)c5c4O)c(O)c23)c2cc(Cl)ccc21 [Compound 5, (3Z,3′E)-3,3′-(((1E, 1′E)-(1,1′,6,6′,7,7′-hexahydroxy-5,5′-diisopropyl-3,3′-dimethyl-[2,2′-binaphthalene]-8,8′-diyl)bis(methanylylidene))bis(hydrazine-2,1-diylidene))bis(5-chloro-1-ethylindolin-2-one)] | good activities |
| 66.5 ± 2.53 µM | > 100 µM | 216.3 °C | > 100 µM | Cc1cc2c(C(C)C)c(O)c(O)c(/C=N/N=C3\C(=O)N(C(C)C)c4ccc(Cl)cc43)c2c(O)c1-c1c(C)cc2c(C(C)C)c(O)c(O)c(/C=N/N=C3/C(=O)N(C(C)C)c4ccc(Cl)cc43)c2c1O [Compound 6, (3Z,3′E)-3,3′-(((1E,1′E)-(1,1′,6,6′,7,7′-hexahydroxy-5,5′-diisopropyl-3,3′-dimethyl-[2,2′-binaphthalene]-8,8′-diyl)bis(methanylylidene))bis(hydrazine-2,1-diylidene))bis(5-chloro-1-isopropylindolin-2-one)] |  |
